Test results published in ChEMBL document CHEMBL1153237, “3-(3-Aryloxyaryl)imidazo[1,2-a]pyridine sulfones as liver X receptor agonists” (Bioorg Med Chem Lett, 2010).
≈ marks a conversion by molar mass, not a printed value.

Columns and labels:
THP-1 [1] = assay: Induction of ABCA1 mRNA upregulation in human THP1 cells relative to T0901317; type: functional
[2] = Half life in human liver microsomes; type: ADME, Microsome
[3] = Half life in mouse liver microsomes; type: ADME, Microsome
[4] = Half life in rat liver microsomes; type: ADME, Microsome
[5] = molecular target: T1, Oxysterols receptor LXR-beta (Homo sapiens, UniProt P55055); conditions: huh-7
[6] = molecular target: T2, Oxysterols receptor LXR-alpha (Homo sapiens, UniProt Q13133); conditions: huh-7
T2 sequence (Q13133 whole entry): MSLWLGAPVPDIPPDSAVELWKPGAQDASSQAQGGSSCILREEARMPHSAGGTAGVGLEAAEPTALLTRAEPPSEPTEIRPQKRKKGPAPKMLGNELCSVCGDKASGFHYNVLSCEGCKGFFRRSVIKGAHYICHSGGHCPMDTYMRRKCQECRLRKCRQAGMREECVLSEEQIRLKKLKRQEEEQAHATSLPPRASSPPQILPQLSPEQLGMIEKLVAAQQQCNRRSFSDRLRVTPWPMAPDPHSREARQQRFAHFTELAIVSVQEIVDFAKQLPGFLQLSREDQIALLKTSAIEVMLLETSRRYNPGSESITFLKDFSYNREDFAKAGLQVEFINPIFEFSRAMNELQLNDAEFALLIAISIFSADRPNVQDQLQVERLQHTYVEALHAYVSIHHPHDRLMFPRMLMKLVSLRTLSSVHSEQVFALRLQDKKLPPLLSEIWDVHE

[7] = molecular target: T2, Oxysterols receptor LXR-alpha
[8] = molecular target: T1, Oxysterols receptor LXR-beta
[9] = Tmax in C57 mouse at 10 mg/kg, po; type: ADME, organism-based; design: dose 10 mg/kg, route oral; conditions: in vivo
HepG2 [10] = assay: Cytotoxic effect as decreased triglyceride level in HepG2 cells after 3 uM treatment; type: cell-based; conditions: human, hepg2, 3 µM
HepG2 [11] = assay: cells; conditions: Homo sapiens
HepG2 [12] = assay: Increase in cellular triglyceride level in human HepG2 cells relative to T0901317; type: functional
[13] = Half life in C57 mouse at 10 mg/kg, po; type: ADME, organism-based; design: dose 10 mg/kg, route oral; conditions: in vivo
THP-1 [14] = assay: cells; conditions: Homo sapiens
[15] = Solubility of the compound; type: physicochemical
[16] = AUC (0 to last) in C57 mouse at 10 mg/kg, po; type: ADME, organism-based; design: dose 10 mg/kg, route oral, time 0 - last; conditions: plasma
[17] = Cmax in C57 mouse at 10 mg/kg, po; type: ADME, organism-based; design: dose 10 mg/kg, route oral; conditions: in vivo
HepG2 [18] = assay: Cytotoxic effect as decreased triglyceride level in HepG2 cells after 10 uM treatment; type: cell-based; conditions: human, hepg2, 10 µM
[19] = Tmax in C57 mouse at 2.5 mg/kg, po; type: ADME, organism-based; design: dose 2.5 mg/kg, route oral; conditions: in vivo
[20] = AUC (0 to last) in C57 mouse at 2.5 mg/kg, po; type: ADME, organism-based; design: time 0 - last, dose 2.5 mg/kg, route oral; conditions: plasma
[21] = Cmax in C57 mouse at 2.5 mg/kg, po; type: ADME, organism-based; design: dose 2.5 mg/kg, route oral; conditions: in vivo

T1 sequence (P55055 whole entry): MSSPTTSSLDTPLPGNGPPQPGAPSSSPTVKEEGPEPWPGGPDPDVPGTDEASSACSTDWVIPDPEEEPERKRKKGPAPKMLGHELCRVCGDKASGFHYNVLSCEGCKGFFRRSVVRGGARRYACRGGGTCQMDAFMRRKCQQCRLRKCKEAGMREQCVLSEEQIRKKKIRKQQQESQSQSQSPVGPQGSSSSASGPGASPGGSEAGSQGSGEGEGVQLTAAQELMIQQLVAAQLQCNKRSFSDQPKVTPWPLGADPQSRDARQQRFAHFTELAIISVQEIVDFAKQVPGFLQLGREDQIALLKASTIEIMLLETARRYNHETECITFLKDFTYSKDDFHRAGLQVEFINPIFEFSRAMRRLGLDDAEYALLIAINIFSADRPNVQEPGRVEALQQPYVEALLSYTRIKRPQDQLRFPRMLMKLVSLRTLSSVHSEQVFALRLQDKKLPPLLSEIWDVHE

half-life [2] | half-life [3] | half-life [4] | EC50 (HepG2 [11]) | EC50 (THP-1 [14]) | solubility [15] | SMILES | Efficacy (THP-1 [1]) | Efficacy (HepG2 [12]) | also measured
30 min | 30 min | 30 min |  |  |  | O=S(=O)(c1ccccc1)N(CC(F)(F)F)c1ccc(C(O)(C(F)(F)F)C(F)(F)F)cc1 [T091317] | 100% |  | 
 |  |  |  |  |  | CC(C)c1nc2c(C(F)(F)F)cccn2c1-c1ccc(-c2ccc(S(C)(=O)=O)cc2)cc1 |  |  | EC50 [5]: Not Active; EC50 [6]: Not Active; IC50 [7]: > 1000 nM; IC50 [8]: > 1000 nM
30 min | 30 min | 30 min | 72 nM | 125 nM | > 100 µg/mL | Cc1nc2c(C(F)(F)F)cccn2c1-c1cccc(Oc2cccc(S(C)(=O)=O)c2)c1 | 99% | 8% | Tmax [9]: 15 min; Decreased_triglyceride (HepG2 [10]): Cytotoxic potential; half-life [13]: 270 min; AUC(0-t) [16]: 4670 ng·h/mL; Cmax [17]: 1140 ng/mL
21 min | 30 min | 30 min |  | 130 nM | 68 µg/mL (≈ 148 µM) | CCS(=O)(=O)c1cccc(Oc2cccc(-c3c(C)nc4c(C(F)(F)F)cccn34)c2)c1 | 100% |  | Tmax [9]: 60 min; Decreased_triglyceride (HepG2 [10]): Cytotoxic potential; half-life [13]: 366 min; Decreased_triglyceride (HepG2 [18]): Cytotoxic potential; AUC(0-t) [16]: 7790 ng·h/mL; Cmax [17]: 1420 ng/mL
 |  |  |  |  | 214 µg/mL (≈ 479 µM) | Cc1nc2c(C(F)(F)F)cccc2n1-c1cccc(Oc2cccc(S(C)(=O)=O)c2)c1 |  |  | Tmax [9]: 120 min; AUC(0-t) [16]: 8940 ng·h/mL; Cmax [17]: 614 ng/mL
30 min | 20 min | 30 min | 227 nM | 243 nM | 228 µg/mL (≈ 495 µM) | CCc1nc2c(C(F)(F)F)cccn2c1-c1cccc(Oc2cccc(S(C)(=O)=O)c2)c1 | 65% | 38% | 
19 min | 2 min | 7 min | 65 nM | 120 nM | 3 µg/mL (≈ 5.74 µM) | CS(=O)(=O)c1cccc(Oc2cccc(-c3c(Cc4ccccc4)nc4c(C(F)(F)F)cccn34)c2)c1 | 105% | 81% | 
 |  |  |  |  |  | CC(C)c1nc2c(C(F)(F)F)cccn2c1-c1ccc(-c2cccc(S(C)(=O)=O)c2)cc1 |  |  | EC50 [5]: Not Active
 |  |  |  |  |  | CC(C)c1nc2c(C(F)(F)F)cccn2c1-c1cccc(OCc2ccc(S(C)(=O)=O)cc2)c1 |  |  | IC50 [7]: > 1000 nM; IC50 [8]: > 1000 nM
3 min | 2 min | 5 min | 128 nM | 44 nM | 73 µg/mL (≈ 138 µM) | CS(=O)(=O)c1cccc(Oc2cccc(-c3c(CN4CCCCC4)nc4c(C(F)(F)F)cccn34)c2)c1 | 100% | 26% | 
 |  |  |  |  | < 1 µg/mL | Cc1cnc2c(C(F)(F)F)cccc2c1-c1cccc(Oc2cccc(S(C)(=O)=O)c2)c1 |  |  | Tmax [19]: 120 min; AUC(0-t) [20]: 1690 ng·h/mL; Cmax [21]: 457 ng/mL
6 min | 3 min | 23 min | 42 nM | 10 nM | 1 µg/mL (≈ 1.87 µM) | CS(=O)(=O)c1cccc(Oc2cccc(-c3c(CN4CCSC4)nc4c(C(F)(F)F)cccn34)c2)c1 | 98% | 36% | 
